Results as given in patent publication US4820695A, “C-20-dihydro-deoxy-(cyclic amino)-derivatives of macrolide antibiotics” (priority 1987, dated 1989).
Values after ≈ are worked out from the molar mass of the structure shown. Where two headings read alike, the source gives them in different places.

Tests used:
Staphyloccus aureus X1.1 = test: MIC, standard agar-dilution assay (Table IX); assay type: cell-based, Staphylococcus aureus; settings: Staphylococcus aureus, read-out: MIC
[1] = system: Staphylococcus aureus V41; test: MIC, standard agar-dilution assay (Table IX); assay type: cell-based; settings: Staphylococcus aureus V41, Penicillin-resistant strain, read-out: MIC
[2] = system: Staphylococcus aureus X400; test: MIC, standard agar-dilution assay (Table IX); assay type: cell-based; settings: Staphylococcus aureus X400, Methicillin-resistant strain, read-out: MIC
[3] = system: Staphylococcus aureus S13E; test: MIC, standard agar-dilution assay (Table IX); assay type: cell-based; settings: Staphylococcus aureus, S13E
[4] = system: Staphylococcus epidermidis EPI1; test: MIC, standard agar-dilution assay (Table IX); assay type: cell-based; settings: Staphylococcus epidermidis EPI1; agar-dilution; read-out: MIC
[5] = system: Staphylococcus epidermidis 222; test: MIC, standard agar-dilution assay (Table IX); assay type: cell-based; settings: read-out: MIC
[6] = system: Streptococcus pyogenes C203; test: MIC, standard agar-dilution assay (Table IX); assay type: cell-based; settings: read-out: MIC
[7] = system: Streptococcus pneumoniae Park I; test: MIC, standard agar-dilution assay (Table IX); assay type: cell-based; settings: Streptococcus pneumoniae Park I; agar-dilution; read-out: MIC
[8] = system: Streptococcus Group D X66; test: MIC, standard agar-dilution assay (Table IX); assay type: cell-based; settings: read-out: MIC
[9] = system: Haemophilus influenzae C.L.; test: MIC, standard agar-dilution assay (Table IX); assay type: cell-based; settings: Ampicillin-sensitive strain, read-out: MIC
[10] = system: Haemophilus influenzae 76; test: MIC, standard agar-dilution assay (Table IX); assay type: cell-based; settings: Haemophilus influenzae 76, Ampicillin-resistant strain, read-out: MIC
Escherichia coli N10 = test: MIC, standard agar-dilution assay (Table IX); assay type: cell-based; settings: read-out: MIC
Escherichia coli EC14 = test: MIC, standard agar-dilution assay (Table IX); assay type: cell-based; settings: read-out: MIC
Escherichia coli TEM = test: MIC, standard agar-dilution assay (Table IX); assay type: cell-based; settings: read-out: MIC
Klebsiella X26 = test: MIC, standard agar-dilution assay (Table IX); assay type: cell-based; settings: read-out: MIC
Group D strain 9960 = test: MIC, standard agar-dilution assay (Table IX); assay type: cell-based, Streptococcus Group D; settings: tested using predecessor Group D strain 9960
[11] = system: Mycoplasma gallisepticum 29C; test: MIC, broth-dilution microtiter test (Table X); assay type: cell-based; settings: Mycoplasmoides gallisepticum, read-out: MIC
Text: (§1) The MIC's in Table X were obtained using conventional broth-dilution microtiter tests.

[12] = system: Mycoplasma hyopneumoniae S5972; test: MIC, broth-dilution microtiter test (Table X); assay type: cell-based; settings: Mesomycoplasma hyopneumoniae, read-out: MIC
Text: as §1

Mycoplasma hyorhinis 29E = test: MIC, broth-dilution microtiter test (Table X); assay type: cell-based; settings: read-out: MIC
Text: as §1

Mycoplasma synoviae 40A = test: MIC, broth-dilution microtiter test (Table X); assay type: cell-based; settings: Mycoplasmopsis synoviae, read-out: MIC
Text: as §1

[13] = system: Pasteurella hemolytica 22C; test: MIC, broth-dilution microtiter test (Table X); assay type: cell-based; settings: read-out: MIC
Text: as §1

[14] = system: Pasteurella multocida 17E; test: MIC, broth-dilution microtiter test (Table X); assay type: cell-based; settings: Bovine isolate, read-out: MIC
Text: as §1

[15] = system: Pasteurella multocida 60A; test: MIC, broth-dilution microtiter test (Table X); assay type: cell-based; settings: Avian isolate, read-out: MIC
Text: as §1

Staphylococcus aureus = test: MIC, broth-dilution microtiter test (Table X); assay type: cell-based; settings: read-out: MIC
Text: as §1

Streptococcus sp. 19F = test: MIC, broth-dilution microtiter test (Table X); assay type: cell-based; settings: read-out: MIC
Text: as §1

[16] = system: Streptococcus pyogenes C203; test: ED50 in mice experimentally infected with S. pyogenes C203 (Table XI); assay type: in vivo; settings: Streptococcus pyogenes, doses given 1 and 4 hours postinfection, read-out: ED50
Procedure, shortened: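 Protective ED50 (mg/kg × 2) was determined as the dose sparing half the animals. Test compound was given twice, at 1 and 4 hours after experimental S. pyogenes C203 infection of mice.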

[17] = Titratable groups in 66% aqueous DMF (Tables XIV-XVI); assay type: physicochemical
Text: ^c Run in 66% aqueous DMF
^d Run in 66% aqueous DMF

[18] = system: Streptococcus Group D 2041; test: MIC, standard agar-dilution assay (Table IX); assay type: cell-based; settings: GROUPD2041, read-out: MIC
Pasteurella multocida [19] = test: Pasteurella infection in one-day-old chicks, subcutaneous administration (Table XII); assay type: in vivo; settings: Administered subcutaneously, 30 mg/kg × 2, 1 and 4 hours post-challenge
Procedure, shortened: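 Treatment was 30 mg/kg s.c., given twice (1 and 4 h after infection). The infection itself was induced in day-old chicks by s.c. injection of 0.1 ml of avian Pasteurella multocida culture (20-h tryptose broth, diluted 10^-4).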

Pasteurella multocida [20] = test: Pasteurella infection in one-day-old chicks, medicated drinking water (Table XIII); assay type: in vivo; settings: Administered in the available drinking water at 2 g/gal
Procedure, shortened: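 Oral dosing was by medicated drinking water (2 g/gal), offered from 4–20 h pre-infection and through a 3-day observation period. The chicks, one day old, were infected s.c. with 0.1 ml of a 10^-4-diluted, 20-h tryptose broth culture of avian Pasteurella multocida.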

[21] = system: Staphylococcus aureus 19C; test: MIC, broth-dilution microtiter test (Table X); assay type: cell-based
Text: as §1

[22] = Titratable groups (first value)

| Structure (SMILES) | MIC (Staphyloccus aureus X1.1) [µg/mL] | MIC [1] [µg/mL] | MIC [2] [µg/mL] | MIC [3] [µg/mL] | MIC [4] [µg/mL] | MIC [5] [µg/mL] | MIC [6] [µg/mL] | MIC [7] [µg/mL] | MIC [8] [µg/mL] | MIC [9] [µg/mL] | MIC [10] [µg/mL] | MIC (Escherichia coli N10) [µg/mL] | MIC (Escherichia coli EC14) [µg/mL] | MIC (Escherichia coli TEM) [µg/mL] | MIC (Klebsiella X26) [µg/mL] | MIC [11] [µg/mL] | MIC [12] [µg/mL] | MIC (Mycoplasma hyorhinis 29E) [µg/mL] | MIC (Mycoplasma synoviae 40A) [µg/mL] | MIC [13] [µg/mL] | other results |
| --- | --- | --- | --- | --- | --- | --- | --- | --- | --- | --- | --- | --- | --- | --- | --- | --- | --- | --- | --- | --- | --- |
| CCC1OC(=O)CC(O)C(C)C(OC2OC(C)C(O)C(N(C)C)C2O)C(CCN2CCCCCCC2)CC(C)C(=O)C=CC(C)=CC1COC1OC(C)C(O)C(OC)C1OC (stereo not shown) [Compound D6] | 0.5 (≈ 0.575 µM) | 0.5 (≈ 0.575 µM) | 0.5 (≈ 0.575 µM) | 0.5 (≈ 0.575 µM) | 5 (≈ 5.75 µM) | 0.25 (≈ 0.288 µM) | 0.5 (≈ 0.575 µM) | 0.5 (≈ 0.575 µM) | 4 (≈ 4.6 µM) | 16 (≈ 18.4 µM) | 16 (≈ 18.4 µM) | 64 (≈ 73.6 µM) | 64 (≈ 73.6 µM) | 16 (≈ 18.4 µM) | 16 (≈ 18.4 µM) | 1.56 (≈ 1.79 µM) | 1.56 (≈ 1.79 µM) | 50 (≈ 57.5 µM) | 0.78 (≈ 0.897 µM) | 1.56 (≈ 1.79 µM) | MIC (Group D strain 9960): 8 µg/mL (≈ 9.2 µM); MIC [14]: 3.12 µg/mL (≈ 3.59 µM); MIC [15]: 6.25 µg/mL (≈ 7.19 µM); MIC (Staphylococcus aureus): 0.78 µg/mL (≈ 0.897 µM); MIC (Streptococcus sp. 19F): 0.78 µg/mL (≈ 0.897 µM); ED50 ([16]; C203, Oral): 14 mg/kg; ED50 ([16]; C203, sc, Subcutaneous): 0.7 mg/kg; Titratable groups [17]: 7.3; Titratable groups (first value) [17]: 5.4; pKa ([17]; Titratable groups): 9.4; pKa [17, 22]: 7.9; pKa ([17]; Titratable groups (third printed value)): 9.2 |
| CCC1OC(=O)CC(O)C(C)C(OC2OC(C)C(O)C(N(C)C)C2O)C(CCN2CCCCCCCC2)CC(C)C(=O)C=CC(C)=CC1COC1OC(C)C(O)C(OC)C1OC (stereo not shown) [Compound D7, 20-DH-DO-20-(octahydro-1H-azonin-1-yl)desmycosin] | 0.5 (≈ 0.566 µM) | 0.5 (≈ 0.566 µM) | 0.5 (≈ 0.566 µM) | 0.5 (≈ 0.566 µM) | 0.5 (≈ 0.566 µM) | 0.25 (≈ 0.283 µM) | 0.06 (≈ 0.0679 µM) | 0.5 (≈ 0.566 µM) | 4 (≈ 4.53 µM) | 16 (≈ 18.1 µM) | 16 (≈ 18.1 µM) | 64 (≈ 72.5 µM) | 64 (≈ 72.5 µM) | 16 (≈ 18.1 µM) | > 128 | 0.39 (≈ 0.442 µM) | 1.56 (≈ 1.77 µM) | 25 (≈ 28.3 µM) | 0.39 (≈ 0.442 µM) | 3.12 (≈ 3.53 µM) | MIC [18]: 8 µg/mL (≈ 9.06 µM); MIC [14]: 6.25 µg/mL (≈ 7.08 µM); MIC [15]: 6.25 µg/mL (≈ 7.08 µM); MIC (Staphylococcus aureus): 1.56 µg/mL (≈ 1.77 µM); MIC (Streptococcus sp. 19F): 3.12 µg/mL (≈ 3.53 µM); ED50 ([16]; C203, Oral): 12 mg/kg; ED50 ([16]; C203, sc, Subcutaneous): 1.6 mg/kg; Number of Deaths/Number Treated (Pasteurella multocida [19]): 3/10; Number of Deaths/Number Treated (Pasteurella multocida [20]): 2/10; pKa ([17]; Titratable groups): 9; pKa [17, 22]: 7.9 |
| CCC1OC(=O)CC(O)C(C)C(OC2OC(C)C(O)C(N(C)C)C2O)C(CCN2CCCC23CCCCC3)CC(C)C(=O)C=CC(C)=CC1COC1OC(C)C(O)C(OC)C1OC (stereo not shown) [Compound D19, 20-DH-DO-20-[1-Azaspiro[4.5]decan-1-yl]desmycosin] | 1 (≈ 1.12 µM) | 1 (≈ 1.12 µM) | 1 (≈ 1.12 µM) | 1 (≈ 1.12 µM) | 1 (≈ 1.12 µM) | 0.25 (≈ 0.279 µM) | 0.5 (≈ 0.559 µM) | 0.25 (≈ 0.279 µM) | 16 (≈ 17.9 µM) | 16 (≈ 17.9 µM) | 16 (≈ 17.9 µM) | 128 (≈ 143 µM) | 128 (≈ 143 µM) | 32 (≈ 35.7 µM) | 32 (≈ 35.7 µM) | 1.56 (≈ 1.74 µM) | 3.12 (≈ 3.49 µM) | > 50 | 0.39 (≈ 0.436 µM) | 3.12 (≈ 3.49 µM) | MIC [18]: 16 µg/mL (≈ 17.9 µM); MIC [14]: 3.12 µg/mL (≈ 3.49 µM); MIC [15]: 3.12 µg/mL (≈ 3.49 µM); MIC (Staphylococcus aureus): 0.78 µg/mL (≈ 0.871 µM); MIC (Streptococcus sp. 19F): 3.12 µg/mL (≈ 3.49 µM); ED50 ([16]; C203, Oral): 46 mg/kg; ED50 ([16]; C203, sc, Subcutaneous): 2.9 mg/kg; Number of Deaths/Number Treated (Pasteurella multocida [19]): 0/10; Number of Deaths/Number Treated (Pasteurella multocida [20]): 3/10; pKa ([17]; Titratable groups): 9.8; pKa [17, 22]: 7.9 |
| CCC1OC(=O)CC(O)C(C)C(OC2OC(C)C(O)C(N(C)C)C2O)C(CCN2CCC3CCCCC3C2)CC(C)C(=O)C=CC(C)=CC1COC1OC(C)C(O)C(OC)C1OC (stereo not shown) [Compound D29, 20-DH-DO-20-(decahydroisoquinolin-2-yl)desmycosin] | 0.5 (≈ 0.559 µM) | 0.5 (≈ 0.559 µM) | 0.5 (≈ 0.559 µM) | 0.5 (≈ 0.559 µM) | 0.5 (≈ 0.559 µM) | 0.125 (≈ 0.14 µM) | 0.5 (≈ 0.559 µM) | 0.5 (≈ 0.559 µM) | 2 (≈ 2.23 µM) | 4 (≈ 4.47 µM) | 4 (≈ 4.47 µM) | 64 (≈ 71.5 µM) | 64 (≈ 71.5 µM) | 16 (≈ 17.9 µM) | 32 (≈ 35.7 µM) | 0.195 (≈ 0.218 µM) | 0.195 (≈ 0.218 µM) | 6.25 (≈ 6.98 µM) | < 0.048 | 6.25 (≈ 6.98 µM) | MIC [18]: 8 µg/mL (≈ 8.94 µM); MIC [14]: 3.12 µg/mL (≈ 3.49 µM); MIC [15]: 6.25 µg/mL (≈ 6.98 µM); MIC [21]: 1.56 µg/mL (≈ 1.74 µM); MIC (Streptococcus sp. 19F): 1.56 µg/mL (≈ 1.74 µM); ED50 ([16]; C203, Oral): 10.3 mg/kg; ED50 ([16]; C203, sc, Subcutaneous): 1.56 mg/kg |
